In paper PMC4664883, “Selective targeting of nuclear receptor FXR by avermectin analogues with therapeutic effects on nonalcoholic fatty liver disease” (Scientific Reports, 2015):

Tests used:
[1] = test system: mice; set-up: method as in PMID 19072826; settings: cited from earlier work
[2] = test system: other nuclear receptors tested; assay: Receptor-specific transactivation reporter assay in COS-7 cells; type: cell-based, human; settings: 10 μM avermectins, Supplementary Fig. S3
Procedure: 30 Receptor-specific ligand
rifampicin; CAR, 5 μM CITCO. […] Luciferase activities
independent experiments. *p<0.001 versus DMSO control.

[3] = test system: KK-Ay mice; assay: High-fat diet fed KK-Ay mice treated 14 days (liver histology, metabolic parameters, GTT, ITT); type: in vivo; settings: for insulin sensitivity (ITT) / glucose tolerance (GTT): KK-Ay mice treated 10 days; for insulin sensitivity (ITT): 1 U/kg insulin i.p.; for glucose tolerance (GTT): 1 g/kg glucose i.p.; for serum cholesterol level / serum triglyceride level / body weight / hepatic lipid / steatosis by H&E staining of liver sections / lipid accumulation by oil red O staining of liver sections / liver morphology (colour): KK-Ay mice; for serum cholesterol level / serum triglyceride level / body weight: 1.3 mg/kg i.p. 14 days; for body weight: versus vehicle, eprinomectin and moxidectin groups; for hepatic lipid / steatosis by H&E staining of liver sections / lipid accumulation by oil red O staining of liver sections / liver morphology (colour): high-fat diet, i.p. once daily 14 days, avermectin analogues 1.3 mg/kg, GW4064 30 mg/kg
Procedure: To further confirm the lipid accumulation, we performed oil red O staining of the frozen liver sections (Fig. 2c).
(§1) 10 weeks age KK-Ay mice and C57BL/6J, homozygous FXR deficient (FXR^–/–) mice were maintained under environmentally controlled conditions with free access to standard chow diet and water as described previously. Animal experiments were conducted in the barrier facility of the Laboratory Animal Center, Xiamen University, approved by the Institutional Animal Use and Care Committee of Xiamen University, China, and the methods were carried out in accordance with the approved guidelines. Mice were fed with high fat diet containing 60% fat, 20% protein and 20% carbohydrate (Research Diets, D12492, New Brunswick, USA), and the food intake were measured every second day. […] After 6 h fasting, mice were weighed and sacrificed. Livers were weighed and taken photos, and part of each liver was fixed in 4% paraformaldehyde. Liver histology characterization was analyzed by haematoxylin and eosin (H&E) staining with paraffin-embedded sections by standard procedures. Other tissues were collected and frozen in liquid nitrogen for use, and serums were collected to measure metabolite parameters.
(§2) Fresh liver tissues were embedded in optimum cutting temperature compound (OCT) and cryosectioned. The sections were fixed in 4% paraformaldehyde in PBS, and were stained with 0.3% oil red O according to standard procedures.
Mice treated with compounds for 10 days were fasted for 6 h with free access to water. For the glucose tolerance test (GTT), 1 g/kg of glucose was i.p. injected and blood glucose was measured with the Accu-Check Performa (Roche Applied Science, Mannheim, Germany) at 0, 30, 60, 90, 120,150 and 180 min. For the insulin tolerance test (ITT), 1 U/kg of recombinant human insulin (Novolin 30R; Novo Nordisk, Bagsvaerd, Denmark) was i.p. injected, and blood glucose was measured at 0, 30, 60, 120 and 150 min after insulin injection.
(§3) Serum glucose was analyzed using glucose oxidase method (Applygen, Beijing, China). Serum cholesterol and triglyceride were analyzed using Cholesterol Assay Kit and Triglyceride Assay Kit (Bioassay Systems, USA), respectively. Liver triglyceride was analyzed using Tissue triglyceride assay kit (Applygen, Beijing, China).

[4] = test system: Wild type C57BL/6J mice; assay: High-fat diet fed wild type mice treated with compounds; type: in vivo; settings: for serum cholesterol levels / serum glucose levels: in a FXR dependent manner (WT versus KO); for amount of lipid in liver sections (oil red O): wild type mice, high-fat diet, versus vehicle
Description: To reaffirm that the function of avermectin analogues on lipid metabolism is by directly targeting FXR signaling, we employed wild type mice and FXR gene knockout mice, both fed with high-fat diet, to study the FXR dependency of physiological effects of these avermectin analogues. […] The expression pattern of FXR target genes SHP, BSEP, solute carrier family 51 beta subunit (OSTβ) and AKR1B7 in primary hepatocytes from wild type mice and FXR gene knockout mice further confirmed the FXR-dependent manner of avermectin analogues (Supplementary Fig. S5).
as §1, §2, §3

[5] = target: T1, FXR ligand binding domain (LBD) (Homo sapiens, UniProt Q96RI1); assay: AlphaScreen cofactor binding assay; type: biochemical; settings: for coactivators recruitment by FXR (biotin-SRC1–2, biotin-SRC2–3): 0.5 μM compound, Fig. 4a
T1 construct: made in house; host or cells: E. coli BL21 (DE3)
T1 sequence (Q96RI1 262-486 limits assumed): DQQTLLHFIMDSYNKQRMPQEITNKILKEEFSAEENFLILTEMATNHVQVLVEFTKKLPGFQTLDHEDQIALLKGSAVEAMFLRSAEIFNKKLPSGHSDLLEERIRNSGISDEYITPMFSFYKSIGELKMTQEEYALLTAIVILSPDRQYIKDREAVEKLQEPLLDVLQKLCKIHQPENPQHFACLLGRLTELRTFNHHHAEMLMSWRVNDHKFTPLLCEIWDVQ
Procedure: The binding of the cofactor peptide motifs to FXR LBD in response to ligands was determined by AlphaScreen assays using a hexahistidine detection kit from Perkins-Elmer (USA) as described before. The FXR LBD protein was purified as described previously.

[6] = test system: FXR A291W mutation; assay: Reporter assay with mutated FXR; type: cell-based; settings: 1 μM, Fig. 8e
[7] = test system: FXR H447F mutation; assay: Reporter assay with mutated FXR; type: cell-based; settings: 1 μM, Fig. 8e
Description: For H447F mutation, the corresponding residue of histidine with a side chain of imidazole group was replaced by the nonpolar phenylalanine with a side chain of benzene ring (Fig. 8c).

[8] = test system: genes related with lipid metabolism / FXR target genes; assay: Real-time PCR of hepatic mRNA levels in treated KK-Ay mice; type: in vivo; settings: KK-Ay mice liver
Procedure: as §1
Total RNA was isolated using Tissue RNA kit (Omega Bio-Tek, GA). The first strand cDNA were obtained by TAKARA reverse transcription kit. Real-time quantitative PCR were performed on a CFX96™ Real-Time PCR Detection System (Bio-Rad) using SYBR Premix Ex TaqTM (TAKARA). Relative mRNA expression levels were normalized to actin levels.

[9] = test system: T2, FXR LBD; assay: Peptide profiling / peptide competition AlphaScreen assay; type: biochemical; settings: 16 unlabelled peptides (20 μM) competing with biotin-SRC2-3; 1 μM compound
T2 construct: made in house; host or cells: E. coli BL21 (DE3)
Description: To determine whether there is a conformational difference of FXR with various avermectin analogues, we performed peptide-profiling experiments using a panel of 16 unlabelled peptides selected from both coactivators and corepressors to compete off the binding of the third LXXLL motif of SRC2 (SRC2–3) to FXR in response to the binding of avermectin analogues (Fig. 5).
Values are the means ± SEM of three independent experiments.

[10] = target: T3, FXR (Homo sapiens, UniProt Q96RI1); assay: Cell-based reporter assay, transient transfection of COS-7 cells (EcRE reporter); settings: for transcriptional activity of FXR: 1 μM compounds, Fig. 4b, EcRE reporter
T3 sequence (Q96RI1 1-472 isoform Q96RI1-2): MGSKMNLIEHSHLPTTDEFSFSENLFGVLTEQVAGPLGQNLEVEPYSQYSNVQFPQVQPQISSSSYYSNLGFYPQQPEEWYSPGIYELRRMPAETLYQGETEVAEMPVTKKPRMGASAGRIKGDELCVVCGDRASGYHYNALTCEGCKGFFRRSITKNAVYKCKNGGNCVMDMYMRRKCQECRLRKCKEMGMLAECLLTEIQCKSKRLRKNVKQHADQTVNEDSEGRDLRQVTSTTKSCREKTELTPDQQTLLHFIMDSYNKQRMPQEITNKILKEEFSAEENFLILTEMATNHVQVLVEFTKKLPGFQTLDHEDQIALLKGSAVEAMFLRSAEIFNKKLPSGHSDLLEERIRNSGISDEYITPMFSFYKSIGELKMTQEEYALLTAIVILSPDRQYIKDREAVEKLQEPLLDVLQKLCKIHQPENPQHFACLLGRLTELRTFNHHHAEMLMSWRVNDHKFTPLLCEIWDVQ
Description: Since ligands can regulate the transcriptional activity of nuclear receptors by binding into their ligand binding pocket, we performed cell-based reporter assay to validate the results from AlphaScreen.
COS-7 cells were cotransfected with plasmids enco ding full-length nuclear receptors and their cognate response reporters as follows: human FXR with EcRE- Luc, human LXR(α and β) with LXRE- luc; human VDR with VDRE-luc; Human RXRα with RXRE- luc; human PPARs (α, δ, and γ) with PPRE-Luc; human GR o r PR with the MMTV-Luc; hum an RARα or RARβ with βRE- Luc; human PXR and CAR with PBRE-luc. 5 h after transfection,
were normalized to renilla activity co-transfected as an internal control.

[11] = test system: diabetic mice; settings: cited from earlier work

SMILES	impact on other nuclear receptors tested (transactivation) [2]	insulin sensitivity (ITT) [3]	glucose tolerance (GTT) [3]	serum cholesterol level [3]	serum triglyceride level [3]	body weight [3]	hepatic lipid / steatosis by H&E staining of liver sections [3]	lipid accumulation by oil red O staining of liver sections [3]	liver morphology (colour) [3]	serum cholesterol levels [4]	serum glucose levels [4]	amount of lipid in liver sections (oil red O) [4]	coactivators recruitment by FXR (biotin-SRC1–2, biotin-SRC2–3) [5]	transcriptional activity of A291W mutated FXR [6]	hepatic expression of BSEP [8]	hepatic expression of SHP [8]	hepatic level of CYP8b1 [8]	hepatic mRNA level of AKR1B7 [8]	hepatic mRNA level of SCD1 [8]	hepatic mRNA level of SREBP-1c [8]	also measured
C[C@H](CCC(=O)O)[C@H]1CC[C@H]2[C@@H]3[C@H](O)C[C@@H]4C[C@H](O)CC[C@]4(C)[C@H]3CC[C@]12C [CDCA, chenodeoxycholic acid]																					liver effect of CDCA-rich diet [1]: induce liver hypertrophy
CCC(C)C1OC2(C=CC1C)CC1CC(CC=C(C)C(OC3CC(OC)C(OC4CC(OC)C(O)C(C)O4)C(C)O3)C(C)C=CC=C3COC4C(O)C(C)=CC(C(=O)O1)C34O)O2 (stereo not drawn) [abamectin]	no substantial impact	significantly improved	significantly improved	significantly decreased	significantly decreased	significantly lower	nearly completely reverse the liver from hepatic steatosis	dramatically reduced the lipid accumulation	much more fresh red tissue	lowered	lowered	significantly reduced the amount of lipid									
CO[C@H]1C[C@H](O[C@H]2[C@H](C)O[C@@H](O[C@@H]3/C(C)=C/C[C@@H]4C[C@@H](C[C@]5(C=C[C@H](C)[C@@H](C6CCCCC6)O5)O4)OC(=O)[C@@H]4C=C(C)[C@@H](O)[C@H]5OC/C(=C\C=C\[C@@H]3C)[C@]54O)C[C@@H]2OC)O[C@@H](C)[C@@H]1O [doramectin]	no substantial impact	significantly improved	significantly improved	significantly decreased	significantly decreased	significantly lower	nearly completely reverse the liver from hepatic steatosis	dramatically reduced the lipid accumulation	much more fresh red tissue	lowered	lowered	significantly reduced the amount of lipid	strongly promoted	abolished the transcriptional activity	induced	induced	decreased	dramatically induced	substantially decreased	substantially decreased	recruitment of nuclear receptor corepressor (NCoR)-2 by FXR ([5]; Fig. 4e): induced the recruitment; transcriptional activity of H447F mutated FXR [7]: increased the FXR activity; peptide profile of ligand-bound FXR [9]: identical peptide profiles as the ivermectin; transcriptional activity of FXR [10]: selectively activated; ligand character for FXR ([10]; concluded from AlphaScreen and reporter assays): partial agonists
CO/N=C1\C[C@]2(C[C@@H]3C[C@@H](C/C=C(\C)C[C@@H](C)/C=C/C=C4\CO[C@@H]5[C@H](O)C(C)=C[C@@H](C(=O)O3)[C@]45O)O2)O[C@H](/C(C)=C/C(C)C)[C@H]1C [moxidectin]				did not	did not				grease white				failed to induce		did not display these regulations	did not display these regulations	did not display these regulations	did not display these regulations	did not display these regulations	did not display these regulations	transcriptional activity of FXR [10]: failed to activate
CCC(C)C1OC2(CCC1C)CC1CC(CC=C(C)C(OC3CC(OC)C(OC4CC(OC)C(O)C(C)O4)C(C)O3)C(C)C=CC=C3COC4C(O)C(C)=CC(C(=O)O1)C34O)O2 (stereo not drawn) [ivermectin]				significantly decreased	significantly decreased	significantly lower	nearly completely reverse the liver from hepatic steatosis	dramatically reduced the lipid accumulation	much more fresh red tissue			significantly reduced the amount of lipid	strongly promoted	abolished the transcriptional activity	induced	induced	decreased	dramatically induced	substantially decreased	substantially decreased	serum cholesterol level [11]: decreased; serum glucose level [11]: decreased
